# Test: Human HepG2 cell viability assay in 384 well format
# Format: toxicity, cell-based
# Set-up: dose 125 nL, time 70.5 hour; cytotoxicity at 70.5 h: concentration not given beside the values
# Details: HepG2 cells, read-out: Inhibition
row,SMILES,cytotoxicity at 70.5 h [%]
1,CC(C)(C)OC(=O)NCC1CCN(C(=O)c2ccccc2O)CC1,-7.62
2,COc1cccc(C(=O)Nc2ccc(OC3CCN(C)CC3)cc2)c1,-4.5
3,CN(C)C(=O)[C@H]1C[C@@H]2CCN(C3CCOCC3)C[C@H]2O1,-8.09
4,CCOc1cc(C)c(-c2cc(N)[nH]n2)cc1OCC,-8.56
5,Cc1cnc(CN(C)C2CCN(Cc3nc4ccccc4o3)C2)o1 (stereo not drawn),15.3
6,CN(CC(N)=O)C(=O)C1Cc2cc(Cl)ccc2O1 (stereo not drawn),-5.33
7,Cn1nc(N2CCCC(C(=O)Nc3nccs3)C2)ccc1=O (stereo not drawn),18
8,COc1ccc(C(=O)Nc2cnn(CC(=O)NC3CCCC3)c2)c(O)c1,-1.19
9,CNS(=O)(=O)c1cccc(C(C)NCc2ccccc2)c1 (stereo not drawn),-2.31
10,NC(=O)NC(=O)CCSc1ccccc1Cl,-17.5
11,O=c1oc(-c2ccc(F)cc2)nn1CN1CCN(CC2CC2)CC1,-21.3
12,Cc1ccc(S(=O)(=O)N2CCC(S(C)(=O)=O)CC2)cc1C,-0.502
13,CO[C@H]1CCN(Cc2c(C)noc2C)[C@@H]2CN(Cc3cccnc3)C[C@H]12,-7.23
14,CN1Cc2cc(F)ccc2N(CC(C)(C)O)CCC1=O,8.74
15,O=C1CSCN1Cc1nc(-c2ccc(N3CCCCC3)cc2)no1,-5.66
16,O=C(C1CC1)N1CCC2(CC1)OCCO2,-6.55
17,Cc1ccc(C(=O)NS(=O)(=O)c2cc(Cl)ccc2Cl)c(=O)[nH]1,-1.03
18,COc1cc(OC)cc(C2NC(=O)CN2Cc2ccc(Br)cc2)c1 (stereo not drawn),-8.73
19,CN(C)CCN1C(=O)CCCC12CCCN(Cc1cccs1)C2 (stereo not drawn),-9.38
20,CCc1cc(CN2C[C@H]3CC[C@@H]2CN(C2Cc4ccccc4C2)C3)on1,-2.96
21,Cc1nn(C(C)(C)C)c(=O)n1CC(=O)NCC(F)(F)F,3.06
22,CS(=O)(=O)N1CCOC2(CCCN(c3ncc(F)cn3)C2)C1 (stereo not drawn),-2.76
23,CC(C)C(C)(C#N)NC(=O)Cn1cc(C(N)=O)c(-c2ccccc2)n1 (stereo not drawn),-6.34

row,SMILES,cytotoxicity at 70.5 h [%]
1,Cc1csc2ncc(-c3ccnc(N4CCCN(C)CC4)n3)c(=O)n12,-0.0913
2,CCOC(C)C(=O)Nc1cc(S(=O)(=O)NC2CC2)ccc1F (stereo not drawn),6.35
3,O=C(c1cc(C2CC2)[nH]n1)N1CCN(c2nccs2)CC1,-11.6
4,O=C(Nc1ccc(-c2csnn2)cc1)N1CCN2CCCCC2C1 (stereo not drawn),5.22
5,CC(NC(=O)CN1C=Nc2ccccc2S1(=O)=O)c1ccccc1 (stereo not drawn),-9.29
6,c1csc(CN2CCC3(CC2)COCCN3CC2CC2)n1,-10.1
7,CC(Cn1cccn1)NC(=O)NCc1cccnc1OC(C)C (stereo not drawn),-4.84
8,N#CC1(C(=O)N2C[C@H](Nc3ncccn3)[C@@H](C3CC3)C2)CCOCC1,-15.6
9,Cc1nnc(SCc2cc(=O)n3c4c(sc3n2)CCCC4)[nH]1,-8.32
10,COCCOc1ccc(NC(=O)N(CCO)C2CC2)cn1,-10.9
11,CC(O)CN1CCC(CNCc2ccc(C#N)cc2)CC1 (stereo not drawn),0.277
12,C=C(C)CN1CCC(C(=O)c2cc(F)ccc2F)CC1,0.664
13,COc1ccc(CCC(=O)N2CCCC2Cn2cc(C)cn2)cc1F (stereo not drawn),-6.64
14,NC(=O)c1ccc(N2CCCCC2)c(NC(=O)c2ccc(Br)cc2)c1,-4.44
15,Cc1nc(C)n(CC2CCCN(CC(=O)Nc3cccnc3)C2)n1 (stereo not drawn),-0.663
16,Cc1ccccc1CN1C[C@@H](CN(C)CCO)[C@@H](CO)C1,-11.6
17,Cc1ccc(C)c(CN2C[C@H]3CC[C@@H]2CN(C(=O)c2cccnc2)C3)c1,1.01
18,Cc1nc(CN2CCC3(CC2)C(=O)N(C)CCN3C)cs1,-4.7
19,c1cnc(N2CCC3(COCCN(CC4CCOCC4)C3)C2)nc1 (stereo not drawn),3.27
20,O=C(c1sccc1C1CC1)N1CCN(c2cnccn2)CC1,-11.8
21,Cc1cc(-c2nccs2)nc(C2CCN(Cc3ccccn3)CC2)n1,-3.72
22,Cn1cc(C(=O)N2CC[C@H](N3CCOCC3)[C@H](CCCO)C2)cn1,-12.1
23,COCCC(=O)N1CCCC1c1csc(Nc2ccccn2)n1 (stereo not drawn),21.7

row,SMILES,cytotoxicity at 70.5 h [%]
1,c1ccc(-c2cnc3n2CCNC32CCNCC2)cc1,43.5
2,CCN(C)c1ncnc2c1CCN(C(=O)c1ccc(C)o1)CC2,-11.3
3,CC(=O)N1CCCN(C(=O)NCCNc2cnccn2)CC1,-2.47
4,CN(C)C(=O)CN1CC[C@H]2CN(C3CCOCC3)C[C@@H]2C1=O,-4.31
5,CCn1cc(CN2CCC(O)(Cn3ccc4ncccc43)CC2)cn1,-0.72
6,COc1ncccc1CN1CCc2[nH]cnc2C1CCSC (stereo not drawn),25.1
7,CC(=O)NC1CCCN(Cc2ccn(C)c(=O)c2)C1 (stereo not drawn),-9.51
8,COCCN(Cc1sccc1C)c1nc(C)nc2sccc12,-3.07
9,CN(Cc1ccco1)Cc1ccccc1CNC(=O)c1cnccn1,-6.66
10,CC1CN(CC(=O)NC2CCCC2)CCN1c1ccc2nncn2n1 (stereo not drawn),-20.8
11,Cc1cc(CNCC2(O)CCOCC2)ccc1Br,4.13
12,Cn1cnc2c1C(C(=O)N1CCCO1)N(C(=O)c1ccccc1)CC2 (stereo not drawn),-9.14
13,COCCN1CCC2(C1)c1ccccc1S(=O)(=O)N2C (stereo not drawn),-10.1
14,CCc1nc(CCNc2ncccc2C#N)sc1C,-8.12
15,O[C@@H]1C[C@H]2CN(Cc3ccccc3Cl)[C@H](Cc3ccccc3)CN2C1,25.5
16,CCC(CC)C(=O)N1CCc2nc(N3CCCC3)nc(C)c2CC1,-12.2
17,Cc1cnn(Cc2cccc(OCC(N)=O)c2)c1,-1.49
18,CC(C)NC(=O)[C@H]1C[C@@H]2[C@@H](C1)OCCN2Cc1nccs1,-4.27
19,COc1ccc(S(=O)(=O)NCCC(O)c2ccccc2)c(C)c1 (stereo not drawn),-8.64
20,CCc1nc2c(N3CCC4(CC3)CC(=O)N(CC)C4)ncnc2o1,-1.14
21,O=C(CCc1nccs1)N1CCN(c2nccs2)CC1,-7.6
22,Cc1ccoc1C(=O)N1CC[C@@H]2CN(C3CCOCC3)CCO[C@@H]2C1,-0.955
23,CCN(CC)c1ccc(NS(=O)(=O)c2cncc(F)c2)cn1,-0.536

row,SMILES,cytotoxicity at 70.5 h [%]
1,CCN(CC)Cc1nnc2sc(C(C)Oc3ccccc3)nn12 (stereo not drawn),4.82
2,Cc1cc(C)n(C2CCCN(C(=O)C3=NN(C)C(=O)CC3)C2)n1 (stereo not drawn),-9.81
3,CC(C)c1noc(CCC(=O)Nc2cc(C(F)(F)F)c[nH]c2=O)n1,-3.33
4,O=C(c1cc(C2CCCC2)no1)N1CCCCC1,-15.8
5,CSc1ncccc1C(=O)NCCC(O)c1cc(C)oc1C (stereo not drawn),-1.76
6,COc1cc(CN(C)Cc2cccnc2)c(SC)cc1OC,-8.67
7,COc1cccc2c1ccn2CCNC(=O)CC(C)C,-15.1
8,CC1CC2(CCN(C(=O)c3c[nH]cn3)CC2)c2ccccc21 (stereo not drawn),-8.21
9,CNc1ncc(CN(C)Cc2cc(O)c3cc(F)ccc3n2)cn1,-8.18
10,CC(C)COC(C)C(=O)NCCNC(=O)C(C)C (stereo not drawn),-1.79
11,Cn1cc(CN2CCc3ncnc(C4CCOC4)c3CC2)cn1 (stereo not drawn),6
12,CN(C)C(=O)CN1C[C@H]2CCN(c3ncccn3)CC[C@H]2S1(=O)=O,-0.338
13,Cc1nc(C)c(CC(=O)N2C[C@H]3CC[C@@H]2CN(C(=O)N(C)C)C3)c(=O)[nH]1,15.9
14,Cc1ccc(CN2C[C@@H]3CN(C(=O)c4cccn4C)C[C@@H]3C2)cc1,-3.66
15,CC(NC(=O)Cn1ccnc1)c1ccc(OCC2CC2)c(F)c1 (stereo not drawn),0.552
16,Cc1cccc(C(=O)N2CCCCC2c2nc3cc(F)ccc3[nH]2)n1 (stereo not drawn),-11.8
17,N#CC1(C(=O)N2CCC(Nc3cccnn3)CC2)CCCCC1,0.814
18,CN(Cc1nc(-c2cccnc2)no1)C(=O)c1cccn1C,53.7
19,CC(O)CN1CCC(CNCc2cccc(C(=O)N(C)C)c2)CC1 (stereo not drawn),1.45
20,CC(C)=CCN1C(=O)[C@H]2CC[C@@H]1CN(c1ncccn1)C2,-21
21,CS(=O)(=O)N1CCN(C(=O)CCC2CCCO2)CC1 (stereo not drawn),-14.1
22,CC(C)c1n[nH]c(C2CN(Cc3ccno3)CCO2)n1 (stereo not drawn),0.21
23,COc1ccc(F)cc1C(C(=O)O)N1CCCN(C2CCCC2)CC1 (stereo not drawn),-5.48

row,SMILES,cytotoxicity at 70.5 h [%]
1,Cn1ncc(C(=O)N2CCN(C(=O)c3ccco3)CC2)c1Cl,-13.4
2,Cc1nc(CN2CCC3(CC2)CCN(C(=O)c2cscn2)C3)cs1,-13.7
3,CCN1CCOC(CNCc2ccccc2OCC(=O)N(C)C)C1 (stereo not drawn),-4.93
4,CCc1nc(CN2CCCN(CC(O)c3ccccc3)CC2)no1 (stereo not drawn),-8.08
5,CC(Cn1cccn1)NCc1nc(-c2ccco2)no1 (stereo not drawn),-16.5
6,COc1ccccc1OC1CCN(C(=O)c2cnc(C)s2)CC1,-4.88
7,Cc1cc(C)n(NC(=O)c2ccccc2C)c(=O)c1,-3.12
8,CN(C)Cc1cccc(-c2cccnc2C(=O)NCc2ccccn2)c1,-3.29
9,O=C(NC1CC(=O)N(C2Cc3ccccc3C2)C1)c1ccoc1 (stereo not drawn),-2.92
10,c1ccc(-n2ncc(CNC3CCc4ncnn4C3)n2)cc1 (stereo not drawn),-10.4
11,O=C1N(c2cccc(F)c2)Cc2nc(=O)n(Cc3ccc(Cl)cc3)n21,-12.7
12,Cn1cc(C2CCCN2C(=O)CCCOc2ccc(F)cc2)cn1 (stereo not drawn),15.6
13,CC(c1cc(F)ccc1F)N1CCN(C(=O)c2ccc(=O)[nH]c2)CC1 (stereo not drawn),-1.22
14,Cc1nc2c(c(C)c1CC(=O)Nc1ccnn1C(C)C)c(=O)[nH]n2C,2.43
15,Cc1cnc(C(=O)NCC2CCOc3ccccc3C2)cn1 (stereo not drawn),14.4
16,NC(=O)CCS(=O)(=O)Cc1ccc(OCC(F)(F)F)cc1,-9.93
17,CCS(=O)(=O)NC1CCc2c(ccc(=O)n2CC2CC2)C1 (stereo not drawn),-7.75
18,Cc1ccc(CSc2nc(N)cc(NCCS(=O)(=O)N(C)C)n2)cc1,-2.68
19,CCc1ccc(CN2CCC3(CCCN(C(=O)c4cnccn4)C3)C2)o1 (stereo not drawn),2.89
20,CC(C)c1nccn1CCC(=O)N1CCCCC1c1ccn[nH]1 (stereo not drawn),3.76
21,Cn1ccnc1C1(O)CCCN(Cc2ccncc2)CC1 (stereo not drawn),-2.25

# From ChEMBL document CHEMBL3507680, “University of Dundee, Gates Library screen for HepG2 cell viability”
